The residual activity is the signal under treatment as a percentage of the control signal.

Sequence of NEK3 (human) (P51956 whole entry, looked up): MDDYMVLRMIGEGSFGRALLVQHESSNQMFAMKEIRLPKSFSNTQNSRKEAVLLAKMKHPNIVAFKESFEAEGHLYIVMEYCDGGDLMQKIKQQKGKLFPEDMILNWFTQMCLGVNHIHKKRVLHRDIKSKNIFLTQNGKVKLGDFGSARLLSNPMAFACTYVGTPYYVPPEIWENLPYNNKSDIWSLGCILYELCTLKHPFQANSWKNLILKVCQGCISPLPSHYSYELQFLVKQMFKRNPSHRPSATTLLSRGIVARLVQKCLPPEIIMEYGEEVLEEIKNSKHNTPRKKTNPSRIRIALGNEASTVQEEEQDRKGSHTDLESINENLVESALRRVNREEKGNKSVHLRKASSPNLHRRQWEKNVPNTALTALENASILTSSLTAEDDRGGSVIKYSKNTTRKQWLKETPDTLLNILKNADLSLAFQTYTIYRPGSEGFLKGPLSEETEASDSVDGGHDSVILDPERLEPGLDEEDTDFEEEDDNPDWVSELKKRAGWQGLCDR
Sequence of PKN2 (human) (Q16513 whole entry, looked up): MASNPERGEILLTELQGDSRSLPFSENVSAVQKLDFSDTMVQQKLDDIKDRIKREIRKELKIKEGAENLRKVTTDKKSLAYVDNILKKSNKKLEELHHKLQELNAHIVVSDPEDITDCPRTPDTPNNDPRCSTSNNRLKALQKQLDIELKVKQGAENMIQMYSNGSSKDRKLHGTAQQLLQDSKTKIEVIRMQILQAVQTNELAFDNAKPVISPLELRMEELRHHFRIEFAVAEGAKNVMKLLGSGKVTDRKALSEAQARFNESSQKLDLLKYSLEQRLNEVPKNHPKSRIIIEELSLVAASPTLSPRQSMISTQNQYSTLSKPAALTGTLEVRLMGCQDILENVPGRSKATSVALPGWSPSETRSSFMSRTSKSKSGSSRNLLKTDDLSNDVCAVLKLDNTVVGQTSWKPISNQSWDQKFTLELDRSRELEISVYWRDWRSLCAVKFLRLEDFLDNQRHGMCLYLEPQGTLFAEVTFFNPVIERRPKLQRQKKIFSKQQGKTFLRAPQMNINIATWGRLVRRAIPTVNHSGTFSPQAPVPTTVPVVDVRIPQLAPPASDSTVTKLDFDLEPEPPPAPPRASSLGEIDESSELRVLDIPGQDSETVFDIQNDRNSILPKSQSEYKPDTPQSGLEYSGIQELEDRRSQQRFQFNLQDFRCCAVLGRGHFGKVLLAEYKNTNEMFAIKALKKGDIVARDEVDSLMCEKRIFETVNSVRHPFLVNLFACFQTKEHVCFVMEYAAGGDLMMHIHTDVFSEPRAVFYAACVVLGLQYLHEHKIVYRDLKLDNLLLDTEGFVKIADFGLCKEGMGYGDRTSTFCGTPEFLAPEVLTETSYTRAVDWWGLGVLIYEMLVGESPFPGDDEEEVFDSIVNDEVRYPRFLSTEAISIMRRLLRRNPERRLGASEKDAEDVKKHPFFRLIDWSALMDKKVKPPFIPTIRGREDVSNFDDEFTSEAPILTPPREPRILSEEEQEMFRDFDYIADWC
Sequence of PRKD1 (human) (Q15139 whole entry, looked up): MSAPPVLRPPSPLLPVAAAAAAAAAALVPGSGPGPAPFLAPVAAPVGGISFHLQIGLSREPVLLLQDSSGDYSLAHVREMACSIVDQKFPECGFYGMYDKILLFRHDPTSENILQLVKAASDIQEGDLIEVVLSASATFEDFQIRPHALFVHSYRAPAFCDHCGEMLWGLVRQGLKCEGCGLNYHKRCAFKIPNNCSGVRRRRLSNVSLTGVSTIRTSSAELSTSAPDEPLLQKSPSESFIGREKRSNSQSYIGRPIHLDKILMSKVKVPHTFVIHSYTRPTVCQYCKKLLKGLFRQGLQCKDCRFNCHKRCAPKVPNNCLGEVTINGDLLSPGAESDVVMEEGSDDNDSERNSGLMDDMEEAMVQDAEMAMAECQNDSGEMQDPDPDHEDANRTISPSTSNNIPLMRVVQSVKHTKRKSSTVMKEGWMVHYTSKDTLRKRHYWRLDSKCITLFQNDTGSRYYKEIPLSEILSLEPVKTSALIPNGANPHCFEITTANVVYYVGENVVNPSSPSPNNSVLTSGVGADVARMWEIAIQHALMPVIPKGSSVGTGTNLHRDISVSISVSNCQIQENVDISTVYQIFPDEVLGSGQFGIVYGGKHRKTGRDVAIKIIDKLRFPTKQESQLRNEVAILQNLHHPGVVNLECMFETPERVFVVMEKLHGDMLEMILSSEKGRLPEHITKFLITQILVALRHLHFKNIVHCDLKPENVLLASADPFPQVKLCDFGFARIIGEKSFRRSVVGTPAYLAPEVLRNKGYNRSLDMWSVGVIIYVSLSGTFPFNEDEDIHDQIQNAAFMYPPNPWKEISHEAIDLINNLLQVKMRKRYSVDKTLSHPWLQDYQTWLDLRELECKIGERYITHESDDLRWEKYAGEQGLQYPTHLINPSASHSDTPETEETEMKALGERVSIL
Sequence of WEE1 (human) (P30291 whole entry, looked up): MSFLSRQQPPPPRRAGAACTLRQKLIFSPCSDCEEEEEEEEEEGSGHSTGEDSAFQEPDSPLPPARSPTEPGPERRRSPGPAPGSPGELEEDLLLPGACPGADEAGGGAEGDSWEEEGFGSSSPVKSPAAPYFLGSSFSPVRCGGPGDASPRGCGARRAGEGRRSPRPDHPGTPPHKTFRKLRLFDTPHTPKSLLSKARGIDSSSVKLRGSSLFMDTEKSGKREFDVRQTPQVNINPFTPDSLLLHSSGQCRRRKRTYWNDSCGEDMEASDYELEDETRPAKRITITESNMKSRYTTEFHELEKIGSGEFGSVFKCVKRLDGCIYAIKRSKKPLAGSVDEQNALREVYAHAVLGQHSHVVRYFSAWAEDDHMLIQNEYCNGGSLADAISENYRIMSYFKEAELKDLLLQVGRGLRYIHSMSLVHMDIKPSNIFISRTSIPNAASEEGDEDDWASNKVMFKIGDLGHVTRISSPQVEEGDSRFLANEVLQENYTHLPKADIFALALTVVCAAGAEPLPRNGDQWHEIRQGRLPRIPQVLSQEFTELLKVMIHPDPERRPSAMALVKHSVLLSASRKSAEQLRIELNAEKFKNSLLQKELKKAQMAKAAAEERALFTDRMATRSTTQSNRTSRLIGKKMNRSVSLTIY

One assay addresses MAP3K11 (human) (UniProt Q16584). Briefly: radiometric filter-binding kinase assay, Kinase HotSpot. Conditions: compound 0.5 µM; ATP 10 µM.
With `Cc1nc2cc3nc(-c4cccs4)cnc3cc2n1C`, the residual activity worked out at 91.1%.
Same read-out and setting: the same measure for `COc1cc2ncnc(N3CCN(C(=O)Nc4ccc(Oc5ccccc5)cc4)CC3)c2cc1OC`: 97%; for `Oc1ccc(Nc2nc(-c3ccc(Cl)cc3)cs2)cc1`: 95.3%.

For a further assay, the target named is MAPK14 (human) (UniProt Q16539). Described as above. Conditions: compound 0.5 µM; ATP 10 µM.
Sequence of MAPK14 (human) (Q16539 whole entry, looked up): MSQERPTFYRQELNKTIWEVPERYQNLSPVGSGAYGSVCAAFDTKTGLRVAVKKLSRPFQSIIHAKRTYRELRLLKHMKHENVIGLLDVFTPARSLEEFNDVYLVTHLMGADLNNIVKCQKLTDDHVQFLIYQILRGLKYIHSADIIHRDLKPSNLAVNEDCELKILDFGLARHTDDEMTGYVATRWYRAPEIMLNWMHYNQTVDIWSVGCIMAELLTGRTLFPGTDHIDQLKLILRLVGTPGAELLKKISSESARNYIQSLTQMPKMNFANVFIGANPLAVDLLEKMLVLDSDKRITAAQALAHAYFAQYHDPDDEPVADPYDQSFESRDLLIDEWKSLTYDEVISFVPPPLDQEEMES
Turning to `Cc1nc2cc3nc(-c4cccs4)cnc3cc2n1C`, the residual activity worked out at 97.5%.
`COc1cc2ncnc(N3CCN(C(=O)Nc4ccc(Oc5ccccc5)cc4)CC3)c2cc1OC`: the residual activity is 81%.
On to `Oc1ccc(Nc2nc(-c3ccc(Cl)cc3)cs2)cc1`, for which the residual activity was found to be 98.6%.

For the next assay, the target named is MARK4 (human) (UniProt Q96L34). The description is as above. As to conditions: compound 0.5 µM; ATP 10 µM.
Sequence of MARK4 (human) (Q96L34 whole entry, looked up): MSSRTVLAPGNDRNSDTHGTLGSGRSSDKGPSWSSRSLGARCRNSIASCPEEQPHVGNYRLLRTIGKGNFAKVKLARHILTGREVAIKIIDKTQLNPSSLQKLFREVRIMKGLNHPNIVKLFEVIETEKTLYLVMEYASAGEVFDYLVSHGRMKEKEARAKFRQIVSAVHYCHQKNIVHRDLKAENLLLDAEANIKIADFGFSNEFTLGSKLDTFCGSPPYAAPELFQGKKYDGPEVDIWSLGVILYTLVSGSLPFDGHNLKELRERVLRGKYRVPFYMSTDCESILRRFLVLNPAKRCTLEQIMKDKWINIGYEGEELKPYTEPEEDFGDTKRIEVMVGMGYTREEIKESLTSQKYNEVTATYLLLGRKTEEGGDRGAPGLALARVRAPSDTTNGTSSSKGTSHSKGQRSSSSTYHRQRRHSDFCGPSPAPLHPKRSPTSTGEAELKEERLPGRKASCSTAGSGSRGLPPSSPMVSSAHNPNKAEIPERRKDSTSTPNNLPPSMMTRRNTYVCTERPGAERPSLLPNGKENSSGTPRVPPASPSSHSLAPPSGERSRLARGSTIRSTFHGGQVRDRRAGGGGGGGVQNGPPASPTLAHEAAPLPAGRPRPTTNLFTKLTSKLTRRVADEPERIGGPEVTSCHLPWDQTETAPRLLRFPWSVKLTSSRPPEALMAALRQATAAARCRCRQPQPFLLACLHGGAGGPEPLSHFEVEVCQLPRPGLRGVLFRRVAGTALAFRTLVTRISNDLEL
With `Cc1nc2cc3nc(-c4cccs4)cnc3cc2n1C`, the residual activity is 105%.
With `COc1cc2ncnc(N3CCN(C(=O)Nc4ccc(Oc5ccccc5)cc4)CC3)c2cc1OC`, the residual activity was determined as 76.5%.
Regarding `Oc1ccc(Nc2nc(-c3ccc(Cl)cc3)cs2)cc1`, the residual activity was 103%.

The next assay has as its target MATK (human) (UniProt P42679). Described as above. Conditions: compound 0.5 µM; ATP 10 µM.
For the compound `Cc1nc2cc3nc(-c4cccs4)cnc3cc2n1C`, the residual activity turned out to be 100%.
Regarding `COc1cc2ncnc(N3CCN(C(=O)Nc4ccc(Oc5ccccc5)cc4)CC3)c2cc1OC`, the residual activity turned out to be 96.8%.
In the case of `Oc1ccc(Nc2nc(-c3ccc(Cl)cc3)cs2)cc1`, the residual activity was 95.6%.

A further assay concerns the target MERTK (human) (UniProt Q12866). The assay is described as above. Conditions: compound 0.5 µM; ATP 10 µM.
Take `Cc1nc2cc3nc(-c4cccs4)cnc3cc2n1C`: the residual activity amounted to 90.4%.
For the compound `COc1cc2ncnc(N3CCN(C(=O)Nc4ccc(Oc5ccccc5)cc4)CC3)c2cc1OC`, the residual activity stood at 60%.
Consider `Oc1ccc(Nc2nc(-c3ccc(Cl)cc3)cs2)cc1`, for which the residual activity was 97.1%.

A further assay deals with MINK1 (human) (UniProt Q8N4C8). The description is as above. Conditions: compound 0.5 µM; ATP 10 µM.
With `Cc1nc2cc3nc(-c4cccs4)cnc3cc2n1C`, the residual activity stood at 98.9%.
Turning to `COc1cc2ncnc(N3CCN(C(=O)Nc4ccc(Oc5ccccc5)cc4)CC3)c2cc1OC`, the residual activity was found to be 99.6%.
As for `Oc1ccc(Nc2nc(-c3ccc(Cl)cc3)cs2)cc1`, the residual activity turned out to be 103%.

The target in another assay is NEK1 (human) (UniProt Q96PY6). The description is as above. Conditions: compound 0.5 µM; ATP 10 µM.
Turning to `Cc1nc2cc3nc(-c4cccs4)cnc3cc2n1C`, the residual activity is 94%.
Regarding `COc1cc2ncnc(N3CCN(C(=O)Nc4ccc(Oc5ccccc5)cc4)CC3)c2cc1OC`, the residual activity came to 92.6%.
Take `Oc1ccc(Nc2nc(-c3ccc(Cl)cc3)cs2)cc1`: the residual activity stood at 104%.

Another assay addresses NEK3 (human) (UniProt P51956). Described as above. As to conditions: compound 0.5 µM; ATP 10 µM.
Regarding `Cc1nc2cc3nc(-c4cccs4)cnc3cc2n1C`, the residual activity worked out at 108%.
Turning to `COc1cc2ncnc(N3CCN(C(=O)Nc4ccc(Oc5ccccc5)cc4)CC3)c2cc1OC`, the residual activity turned out to be 100%.
On to `Oc1ccc(Nc2nc(-c3ccc(Cl)cc3)cs2)cc1`, for which the residual activity amounted to 98.4%.

Another assay addresses PAK1 (human) (UniProt Q13153). The assay is described as above. As to conditions: compound 0.5 µM; ATP 10 µM.
As to `Cc1nc2cc3nc(-c4cccs4)cnc3cc2n1C`, the residual activity was found to be 86.6%.
In the case of `COc1cc2ncnc(N3CCN(C(=O)Nc4ccc(Oc5ccccc5)cc4)CC3)c2cc1OC`, the residual activity amounted to 91.8%.
As to `Oc1ccc(Nc2nc(-c3ccc(Cl)cc3)cs2)cc1`, the residual activity worked out at 99.4%.

The target in another assay is PBK (human) (UniProt Q96KB5). The assay is described as above. As to conditions: compound 0.5 µM; ATP 10 µM.
Sequence of PBK (human) (Q96KB5 whole entry, looked up): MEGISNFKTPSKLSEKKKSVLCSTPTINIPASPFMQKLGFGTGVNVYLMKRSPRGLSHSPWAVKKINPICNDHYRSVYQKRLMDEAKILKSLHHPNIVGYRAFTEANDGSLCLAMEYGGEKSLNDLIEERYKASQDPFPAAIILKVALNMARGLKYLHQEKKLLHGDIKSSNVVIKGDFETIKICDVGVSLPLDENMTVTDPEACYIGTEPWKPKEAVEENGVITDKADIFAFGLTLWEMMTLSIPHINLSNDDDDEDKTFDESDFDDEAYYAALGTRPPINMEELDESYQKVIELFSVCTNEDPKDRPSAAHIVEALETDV
With `Cc1nc2cc3nc(-c4cccs4)cnc3cc2n1C`, the residual activity was determined as 98.9%.
As to `COc1cc2ncnc(N3CCN(C(=O)Nc4ccc(Oc5ccccc5)cc4)CC3)c2cc1OC`, the residual activity was determined as 85.8%.
As for `Oc1ccc(Nc2nc(-c3ccc(Cl)cc3)cs2)cc1`, the residual activity was determined as 100%.

The target in the next assay is PHKG1 (human) (UniProt Q16816). The assay is described as above. As to conditions: compound 0.5 µM; ATP 10 µM.
`Cc1nc2cc3nc(-c4cccs4)cnc3cc2n1C`: the residual activity amounted to 98.2%.
Regarding `COc1cc2ncnc(N3CCN(C(=O)Nc4ccc(Oc5ccccc5)cc4)CC3)c2cc1OC`, the residual activity was determined as 89.5%.
Consider `Oc1ccc(Nc2nc(-c3ccc(Cl)cc3)cs2)cc1`, for which the residual activity came to 96.5%.

Another assay addresses PKN2 (human) (UniProt Q16513). The description is as above. Conditions: compound 0.5 µM; ATP 10 µM.
In the case of `Cc1nc2cc3nc(-c4cccs4)cnc3cc2n1C`, the residual activity is 71%.
On the same count and under the same terms, for `COc1cc2ncnc(N3CCN(C(=O)Nc4ccc(Oc5ccccc5)cc4)CC3)c2cc1OC` the value was 99.1%.
Regarding `Oc1ccc(Nc2nc(-c3ccc(Cl)cc3)cs2)cc1`, the residual activity was determined as 93.8%.

Another assay has as its target PRKCI (human) (UniProt P41743). The description is as above. Conditions: compound 0.5 µM; ATP 10 µM.
On to `Cc1nc2cc3nc(-c4cccs4)cnc3cc2n1C`, for which the residual activity came to 99.1%.
As to `COc1cc2ncnc(N3CCN(C(=O)Nc4ccc(Oc5ccccc5)cc4)CC3)c2cc1OC`, the residual activity was determined as 105%.
In the case of `Oc1ccc(Nc2nc(-c3ccc(Cl)cc3)cs2)cc1`, the residual activity is 99.5%.

Another assay has as its target PRKD1 (human) (UniProt Q15139). The assay is described as above. Conditions: compound 0.5 µM; ATP 10 µM.
For `Cc1nc2cc3nc(-c4cccs4)cnc3cc2n1C`, the residual activity came out at 97.7%.
`COc1cc2ncnc(N3CCN(C(=O)Nc4ccc(Oc5ccccc5)cc4)CC3)c2cc1OC`: the residual activity worked out at 102%.
With `Oc1ccc(Nc2nc(-c3ccc(Cl)cc3)cs2)cc1`, the residual activity was 96.8%.

The next assay addresses PRKD2 (human) (UniProt Q9BZL6). The assay is described as above. Conditions: compound 0.5 µM; ATP 10 µM.
In the case of `Cc1nc2cc3nc(-c4cccs4)cnc3cc2n1C`, the residual activity came out at 106%.
The same measure, in the same setting: the same measure for `COc1cc2ncnc(N3CCN(C(=O)Nc4ccc(Oc5ccccc5)cc4)CC3)c2cc1OC`: 91.9%; for `Oc1ccc(Nc2nc(-c3ccc(Cl)cc3)cs2)cc1`: 102%.

For another assay, the target named is SLK (human) (UniProt Q9H2G2). Described as above. As to conditions: compound 0.5 µM; ATP 10 µM.
Turning to `Cc1nc2cc3nc(-c4cccs4)cnc3cc2n1C`, the residual activity came out at 94.5%.
Consider `COc1cc2ncnc(N3CCN(C(=O)Nc4ccc(Oc5ccccc5)cc4)CC3)c2cc1OC`, for which the residual activity was found to be 97.9%.
Same read-out and setting: the same measure for `Oc1ccc(Nc2nc(-c3ccc(Cl)cc3)cs2)cc1`: 110%.

Another assay has as its target STK25 (human) (UniProt O00506). The assay is described as above. As to conditions: compound 0.5 µM; ATP 10 µM.
`Cc1nc2cc3nc(-c4cccs4)cnc3cc2n1C`: the residual activity worked out at 97.3%.
In the case of `COc1cc2ncnc(N3CCN(C(=O)Nc4ccc(Oc5ccccc5)cc4)CC3)c2cc1OC`, the residual activity stood at 100%.
Consider `Oc1ccc(Nc2nc(-c3ccc(Cl)cc3)cs2)cc1`, for which the residual activity was 113%.

Another assay addresses TEK (human) (UniProt Q02763). The assay is described as above. Conditions: compound 0.5 µM; ATP 10 µM.
Turning to `Cc1nc2cc3nc(-c4cccs4)cnc3cc2n1C`, the residual activity is 96.6%.
Still for that read-out and setting: for `COc1cc2ncnc(N3CCN(C(=O)Nc4ccc(Oc5ccccc5)cc4)CC3)c2cc1OC` the value was 92.6%; for `Oc1ccc(Nc2nc(-c3ccc(Cl)cc3)cs2)cc1`, 104%.

For a further assay, the target named is TSSK2 (human) (UniProt Q96PF2). The description is as above. Conditions: compound 0.5 µM; ATP 10 µM.
Sequence of TSSK2 (human) (Q96PF2 whole entry, looked up): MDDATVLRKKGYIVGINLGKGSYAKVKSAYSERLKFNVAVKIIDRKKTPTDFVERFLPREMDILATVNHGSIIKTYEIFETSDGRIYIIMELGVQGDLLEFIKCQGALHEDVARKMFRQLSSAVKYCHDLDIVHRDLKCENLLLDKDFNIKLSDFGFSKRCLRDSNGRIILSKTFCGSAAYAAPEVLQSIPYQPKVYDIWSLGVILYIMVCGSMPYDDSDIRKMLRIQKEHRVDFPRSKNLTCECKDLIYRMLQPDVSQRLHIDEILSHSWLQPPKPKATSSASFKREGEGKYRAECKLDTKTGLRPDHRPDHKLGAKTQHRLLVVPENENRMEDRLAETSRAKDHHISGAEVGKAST
With `Cc1nc2cc3nc(-c4cccs4)cnc3cc2n1C`, the residual activity worked out at 98.2%.
For `COc1cc2ncnc(N3CCN(C(=O)Nc4ccc(Oc5ccccc5)cc4)CC3)c2cc1OC`, the residual activity was found to be 79.1%.
Turning to `Oc1ccc(Nc2nc(-c3ccc(Cl)cc3)cs2)cc1`, the residual activity amounted to 102%.

A further assay addresses WEE1 (human) (UniProt P30291). The assay is described as above. As to conditions: compound 0.5 µM; ATP 10 µM.
Regarding `Cc1nc2cc3nc(-c4cccs4)cnc3cc2n1C`, the residual activity was 86.9%.
Regarding `COc1cc2ncnc(N3CCN(C(=O)Nc4ccc(Oc5ccccc5)cc4)CC3)c2cc1OC`, the residual activity stood at 97.5%.
As to `Oc1ccc(Nc2nc(-c3ccc(Cl)cc3)cs2)cc1`, the residual activity amounted to 93.2%.

The target in a further assay is WNK2 (human) (UniProt Q9Y3S1). The assay is described as above. As to conditions: compound 0.5 µM; ATP 10 µM.
For `Cc1nc2cc3nc(-c4cccs4)cnc3cc2n1C`, the residual activity came to 123%.
Consider `COc1cc2ncnc(N3CCN(C(=O)Nc4ccc(Oc5ccccc5)cc4)CC3)c2cc1OC`, for which the residual activity is 102%.
For the compound `Oc1ccc(Nc2nc(-c3ccc(Cl)cc3)cs2)cc1`, the residual activity came out at 101%.

These data come from the kinase profiling compilation of Christmann-Franck et al. (2016).
